Test [1] concerns the target Neuropilin-1 (Rattus norvegicus, UniProt Q9QWJ9). Kind of test: Inhibition of biotinylated VEGF-A165 from rat recombinant NRP-1 Fc domain.
For test [2], the target named is Neuropilin-1 (Rattus norvegicus) (UniProt Q9QWJ9). Kind of test: Inhibition of biotinylated VEGF-A165 from rat recombinant NRP-1 Fc domain at 100 uM.

In general, Ki refers to the equilibrium dissociation constant of an inhibitor or competing ligand from its target. Broadly, the inhibition is the share of the control response that was lost under treatment.

For `CCOc1cc(CNCCO)cc(Br)c1OCc1ccc(Cl)cc1Cl`, the Ki in test [1] amounted to 10.7 µM.
In the case of `COc1cc(CNC(C)c2ccccc2)cc(Br)c1OCc1ccccc1Cl` (configuration not stated), in test [1], the Ki was found to be 9.4 µM.
In the case of `COc1cc(CNCCO)cc(Br)c1OCc1ccccc1Cl`, the inhibition in test [2] is 60.5%.
For `CCOc1cc(CNCc2ccccc2)cc(Cl)c1OCc1ccccc1Cl`, in test [1], the Ki was found to be 11.3 µM.
As to `CC(C)NCc1ccccc1OCc1ccc(Cl)cc1`, the inhibition in test [2] was 44.8%.
Consider `CCCNCc1ccc(OCc2ccc(Cl)cc2Cl)c(OC)c1`, for which, in test [2], the inhibition worked out at 60.2%.
On the same count and under the same terms, the result for `CC(=O)Nc1ccc2nc(-c3ccccc3C)oc2c1` reads 53.3%; that for `CC[C@H](C)c1ccccc1OCCCCN(CC)CC`, 41.6%; that for `CC[C@@H](C)NCCCOc1ccc(Cl)c(C)c1C`, 52.3%.
Same read-out and setting: the result for `OCCNCc1ccc(OCc2ccccc2)c(Cl)c1` reads 45.1%; that for `Clc1ccc(COc2ccc(CNC3CC3)cc2)cc1`, 47.3%; that for `CCOc1cc(CNCCO)ccc1OCc1ccc(Cl)cc1Cl`, 71.5%.
Same read-out and setting: the result for `CCNCc1cc(Cl)c(OCc2ccccc2Cl)c(OC)c1` reads 59.2%; that for `Cc1cc(O)c(C(=O)COc2ccccc2)c(O)c1`, 55.3%.
For H-ATWLPPR-OH, in test [2], the inhibition amounted to 91.5%. The Ki in test [1] is 5.2 µM.
For the molecule `COc1cc(CNCCO)cc(Cl)c1OCc1ccc(Cl)cc1Cl`, the Ki in test [1] amounted to 7.3 µM.

The record behind these values is ChEMBL document CHEMBL3352596, “Discovery of novel inhibitors of vascular endothelial growth factor-A-Neuropilin-1 interaction by structure-based virtual screening” (Bioorg Med Chem, 2014).
